Source: ChEMBL document CHEMBL3576778, “Structure-Activity Relationship Studies of a Series of Semisynthetic Lipopeptides Leading to the Discovery of Surotomycin, a Novel Cyclic Lipopeptide Being Developed for the Treatment of Clostridium difficile-Associated Diarrhea” (J Med Chem, 2015)
In brackets after ≈: the same amount, converted by molar mass.

Legend:
Assay type in all cases: functional
Staphylococcus aureus [1] = test: Antimicrobial activity against daptomycin-non-susceptible Staphylococcus aureus 399 incubated anaerobically at 37 degC for 48 hrs by agar dilution method; details: Staphylococcus aureus, 399, 48 h
Staphylococcus aureus [2] = test: Potency index, ratio of MIC for daptomycin to MIC for test compound against daptomycin-non-susceptible Staphylococcus aureus 5081 incubated anaerobically at 37 degC for 48 hrs by agar dilution method
Clostridioides difficile [3] = test: Antimicrobial activity against daptomycin-resistant Clostridium difficile NAP1 incubated anaerobically at 37 degC for 48 hrs by agar dilution method; details: NAP1, 48 h
Staphylococcus aureus [4] = test: Antimicrobial activity against daptomycin-non-susceptible Staphylococcus aureus 5012 incubated anaerobically at 37 degC for 48 hrs by agar dilution method; details: Staphylococcus aureus, 5012, 48 h
Staphylococcus aureus [5] = test: Antimicrobial activity against daptomycin-non-susceptible Staphylococcus aureus 5004 incubated anaerobically at 37 degC for 48 hrs by agar dilution method; details: Staphylococcus aureus, 5004, 48 h
Clostridioides difficile [6] = test: Antimicrobial activity against daptomycin-resistant Clostridium difficile ATCC 43596 infected in Syrian golden hamster model of Clostridium difficile-associated diarrhea assessed as protection against microbial infection by measuring survival at day 25 to 26 at 0.5 mg/kg treated once daily for 5 consecutive days starting 4 hrs after spore inoculation
Staphylococcus aureus [7] = test: Antimicrobial activity against daptomycin-non-susceptible Staphylococcus aureus 1179 incubated anaerobically at 37 degC for 48 hrs by agar dilution method; details: Staphylococcus aureus, 1179, 48 h
Staphylococcus aureus [8] = test: Potency index, ratio of MIC for daptomycin to MIC for test compound against daptomycin-non-susceptible Staphylococcus aureus 5004 incubated anaerobically at 37 degC for 48 hrs by agar dilution method
Staphylococcus aureus [9] = test: Antimicrobial activity against daptomycin-non-susceptible Staphylococcus aureus 5006 incubated anaerobically at 37 degC for 48 hrs by agar dilution method; details: Staphylococcus aureus, 5006, 48 h
Staphylococcus aureus [10] = test: Potency index, ratio of MIC for daptomycin to MIC for test compound against daptomycin-non-susceptible Staphylococcus aureus 5076 incubated anaerobically at 37 degC for 48 hrs by agar dilution method
Staphylococcus aureus [11] = test: Antimicrobial activity against daptomycin-non-susceptible Staphylococcus aureus 5008 incubated anaerobically at 37 degC for 48 hrs by agar dilution method; details: Staphylococcus aureus, 5008, 48 h
Staphylococcus aureus [12] = test: Antimicrobial activity against daptomycin-non-susceptible Staphylococcus aureus 5059 incubated anaerobically at 37 degC for 48 hrs by agar dilution method; details: Staphylococcus aureus, 5059, 48 h
Staphylococcus aureus [13] = test: Antimicrobial activity against daptomycin-non-susceptible Staphylococcus aureus 278 incubated anaerobically at 37 degC for 48 hrs by agar dilution method; details: Staphylococcus aureus, 278, 48 h
Staphylococcus aureus [14] = test: Antimicrobial activity against daptomycin-non-susceptible Staphylococcus aureus 5030 incubated anaerobically at 37 degC for 48 hrs by agar dilution method; details: Staphylococcus aureus, 5030, 48 h
Staphylococcus aureus [15] = test: Antimicrobial activity against daptomycin-non-susceptible Staphylococcus aureus 5016 incubated anaerobically at 37 degC for 48 hrs by agar dilution method; details: Staphylococcus aureus, 5016, 48 h
Staphylococcus aureus [16] = test: Antimicrobial activity against daptomycin-non-susceptible Staphylococcus aureus 1616 incubated anaerobically at 37 degC for 48 hrs by agar dilution method; details: Staphylococcus aureus, 1616, 48 h
Prevotella sp. = test: Toxicity against Prevotella spp. assessed as inhibition of microbe growth
Staphylococcus aureus [17] = test: Antimicrobial activity against daptomycin-non-susceptible Staphylococcus aureus 5034 incubated anaerobically at 37 degC for 48 hrs by agar dilution method; details: Staphylococcus aureus, 5034, 48 h
Staphylococcus aureus [18] = test: Potency index, ratio of MIC for daptomycin to MIC for test compound against daptomycin-non-susceptible Staphylococcus aureus 1616 incubated anaerobically at 37 degC for 48 hrs by agar dilution method
Staphylococcus aureus [19] = test: Antimicrobial activity against daptomycin-non-susceptible Staphylococcus aureus 5060 incubated anaerobically at 37 degC for 48 hrs by agar dilution method; details: Staphylococcus aureus, 5060, 48 h
Clostridioides difficile [20] = test: Potency index, ratio of MIC for daptomycin to MIC for test compound against daptomycin-resistant Clostridium difficile NAP1 incubated anaerobically at 37 degC for 48 hrs by agar dilution method
Staphylococcus aureus [21] = test: Potency index, ratio of MIC for daptomycin to MIC for test compound against daptomycin-non-susceptible Staphylococcus aureus 5010 incubated anaerobically at 37 degC for 48 hrs by agar dilution method
Staphylococcus aureus [22] = test: Potency index, ratio of MIC for daptomycin to MIC for test compound against daptomycin-non-susceptible Staphylococcus aureus 5063 incubated anaerobically at 37 degC for 48 hrs by agar dilution method
Staphylococcus aureus [23] = test: Potency index, ratio of MIC for daptomycin to MIC for test compound against daptomycin-non-susceptible Staphylococcus aureus 5016 incubated anaerobically at 37 degC for 48 hrs by agar dilution method
Staphylococcus aureus [24] = test: Potency index, ratio of MIC for daptomycin to MIC for test compound against daptomycin-non-susceptible Staphylococcus aureus 5030 incubated anaerobically at 37 degC for 48 hrs by agar dilution method
Enterococcus faecalis = test: Antimicrobial activity against daptomycin-resistant Enterococcus faecalis ATCC 49452 incubated anaerobically at 37 degC for 48 hrs by agar dilution method; details: ATCC 49452, 48 h
Staphylococcus aureus [25] = test: Potency index, ratio of MIC for daptomycin to MIC for test compound against daptomycin-non-susceptible Staphylococcus aureus 5006 incubated anaerobically at 37 degC for 48 hrs by agar dilution method
Staphylococcus aureus [26] = test: Antimicrobial activity against daptomycin-non-susceptible Staphylococcus aureus 1145 incubated anaerobically at 37 degC for 48 hrs by agar dilution method; details: Staphylococcus aureus, 1145, 48 h
Staphylococcus aureus [27] = test: Potency index, ratio of MIC for daptomycin to MIC for test compound against daptomycin-non-susceptible Staphylococcus aureus 42 incubated anaerobically at 37 degC for 48 hrs by agar dilution method
Staphylococcus aureus [28] = test: Potency index, ratio of MIC for daptomycin to MIC for test compound against daptomycin-non-susceptible Staphylococcus aureus 5012 incubated anaerobically at 37 degC for 48 hrs by agar dilution method
Staphylococcus aureus [29] = test: Potency index, ratio of MIC for daptomycin to MIC for test compound against daptomycin-non-susceptible Staphylococcus aureus 1145 incubated anaerobically at 37 degC for 48 hrs by agar dilution method
Staphylococcus aureus [30] = test: Potency index, ratio of MIC for daptomycin to MIC for test compound against daptomycin-non-susceptible Staphylococcus aureus 5091 incubated anaerobically at 37 degC for 48 hrs by agar dilution method
Staphylococcus aureus [31] = test: Potency index, ratio of MIC for daptomycin to MIC for test compound against daptomycin-non-susceptible Staphylococcus aureus 5008 incubated anaerobically at 37 degC for 48 hrs by agar dilution method
Staphylococcus aureus [32] = test: Potency index, ratio of MIC for daptomycin to MIC for test compound against daptomycin-non-susceptible Staphylococcus aureus 1326 incubated anaerobically at 37 degC for 48 hrs by agar dilution method
Staphylococcus aureus [33] = test: Antimicrobial activity against daptomycin-non-susceptible Staphylococcus aureus 5017 incubated anaerobically at 37 degC for 48 hrs by agar dilution method; details: Staphylococcus aureus, 5017, 48 h
Staphylococcus aureus [34] = test: Antimicrobial activity against daptomycin-non-susceptible Staphylococcus aureus 5076 incubated anaerobically at 37 degC for 48 hrs by agar dilution method; details: Staphylococcus aureus, 5076, 48 h
Staphylococcus aureus [35] = test: Potency index, ratio of MIC for daptomycin to MIC for test compound against daptomycin-non-susceptible Staphylococcus aureus 5014 incubated anaerobically at 37 degC for 48 hrs by agar dilution method

## CCCCCc1ccc(/C(C)=C/C(=O)N[C@@H](Cc2c[nH]c3ccccc23)C(=O)N[C@H](CC(N)=O)C(=O)N[C@@H](CC(=O)O)C(=O)N[C@@H]2C(=O)NCC(=O)N[C@@H](CCCN)C(=O)N[C@@H](CC(=O)O)C(=O)N[C@H](C)C(=O)N[C@@H](CC(=O)O)C(=O)NCC(=O)N[C@H](CO)C(=O)N[C@@H]([C@@H](C)CC(=O)O)C(=O)N[C@@H](CC(=O)c3ccccc3N)C(=O)O[C@@H]2C)cc1
Staphylococcus aureus [1]
  MIC: 0.125 µg/mL (≈ 0.0744 µM)
Staphylococcus aureus [2]
  Ratio: 2
Clostridioides difficile [3]
  MIC: 0.5 µg/mL (≈ 0.297 µM)
Staphylococcus aureus [4]
  MIC: 0.25 µg/mL (≈ 0.149 µM)
Staphylococcus aureus [5]
  MIC: 0.25 µg/mL (≈ 0.149 µM)
Clostridioides difficile [6]
  survival at 0.5 mg/kg: 100%
Staphylococcus aureus [7]
  MIC: 0.25 µg/mL (≈ 0.149 µM)
Staphylococcus aureus [8]
  Ratio: 2
Staphylococcus aureus [9]
  MIC: 0.5 µg/mL (≈ 0.297 µM)
Staphylococcus aureus [10]
  Ratio: 2
Staphylococcus aureus [11]
  MIC: 0.5 µg/mL (≈ 0.297 µM)
Staphylococcus aureus [12]
  MIC: 1 µg/mL (≈ 0.595 µM)
Staphylococcus aureus [13]
  MIC: 1 µg/mL (≈ 0.595 µM)
Staphylococcus aureus [14]
  MIC: 1 µg/mL (≈ 0.595 µM)
Staphylococcus aureus [15]
  MIC: 0.5 µg/mL (≈ 0.297 µM)
Staphylococcus aureus [16]
  MIC: 2 µg/mL (≈ 1.19 µM)
Prevotella sp.
  MIC: ≥ 8190 µg/mL
Staphylococcus aureus [17]
  MIC: 0.5 µg/mL (≈ 0.297 µM)
Staphylococcus aureus [18]
  Ratio: 2
Staphylococcus aureus [19]
  MIC: 1 µg/mL (≈ 0.595 µM)
Clostridioides difficile [20]
  Ratio: 4
Staphylococcus aureus [21]
  Ratio: 2
Staphylococcus aureus [22]
  Ratio: 2
Staphylococcus aureus [23]
  Ratio: 2
Staphylococcus aureus [24]
  Ratio: 2
Enterococcus faecalis
  MIC: 4 µg/mL (≈ 2.38 µM)
Staphylococcus aureus [25]
  Ratio: 2
Staphylococcus aureus [26]
  MIC: 0.25 µg/mL (≈ 0.149 µM)
Staphylococcus aureus [27]
  Ratio: 2
Staphylococcus aureus [28]
  Ratio: 2
Staphylococcus aureus [29]
  Ratio: 2
Staphylococcus aureus [30]
  Ratio: 2
Staphylococcus aureus [31]
  Ratio: 2
Staphylococcus aureus [32]
  Ratio: 2
Staphylococcus aureus [33]
  MIC: 0.5 µg/mL (≈ 0.297 µM)
Staphylococcus aureus [34]
  MIC: 0.5 µg/mL (≈ 0.297 µM)
Staphylococcus aureus [35]
  Ratio: 2
